Values quoted from earlier work, collected in patent publication US20250295727A1, “STABLE, READY-TO-ADMINISTER AQUEOUS FORMULATIONS OF DALBAVANCIN” (HIKMA PHARMACEUTICALS USA INC., priority 2022, published 2025).

Conditions: lyophilized
[1] = storage at 25° C. for 12 months

For “dalbavancin [unformulated lyophilized dalbavancin]”, the “decrease of B0” value [1] is listed as 8.5%, the “increase of MAG” value [1] is listed as 10.2% and the “decrease in dalbavancin's primary factor B0” value (storage for 36 months at 5° C.) is listed as 3.6%. The “increase in MAG” value (storage for 36 months at 5° C.) was 2.9%.
